Measured values published in patent US20240245051A1, “DISINFECTING, ANTIMICROBIAL AND PRESERVATIVE COMPOSITION” (BJBIOCHEM CO., LTD., priority 2021, published 2024).

Tests used:
Assay in all cases: Antimicrobial test, broth dilution method (MIC)
Format in all cases: cell-based
Conditions in all cases: single compounds of Comparative Examples
A. niger = system: A. niger
Description: (§1) The antimicrobial activity of the test solution was measured using a broth dilution method. The concentration of the test solution that was treated was diluted from the highest concentration of 5% to the lowest concentration of 0.0001%. The test solution was cultured in the presence of the strain and then the turbidity of the tube was determined. […] After the primary test described as above, the concentration of the test solution that was treated was further subdivided and a secondary test was conducted to obtain an accurate minimum inhibitory concentration (MIC).
(§2) Test strains E. coli, S. aureus, and P. aeruginosa were inoculated into tryptic soy broth and incubated at 35±2° C. for 16 to 24 hours. C. albicans was inoculated into Sabouraud dextrose broth and cultured at 35° C. for 24 hours. A. niger was seeded on potato dextrose agar and cultured at (25±1°) C for 7 days, sterile physiological saline was dispensed into a solid medium on which the bacteria grew, and spores were removed using a spreader and then diluted in sterile physiological saline.
(§3) A liquid medium was put into the tube and the concentration of the test solution that was treated was diluted from the highest concentration of 5% to the lowest concentration of 0.0001%. The liquid media used for E. coli, S. aureus, and P. aeruginosa (bacteria) were tryptic soy broth, and the liquid media used for C. albicans, and A. niger (fungi) were Sabouraud dextrose broth.
(§4) E. coli, S. aureus, and P. aeruginosa of the strains were inoculated at a concentration of 1×10^5 CFU/mL in the test tube. The tubes treated with the test solution were incubated at 35±2° C. for 16 to 24 hours. C. albicans and A. niger were inoculated at a concentration of 1×10^4 CFU/mL in the test tube. After treatment with the test solution was completed, C. albicans was cultured at 35° C. for 24 to 48 hours and A. niger was cultured at 25° C. for 46 to 50 hours. A medium tube, to which the bacterial solution was not added, was used as a negative control, and a tube containing the medium inoculated with only the bacterial solution without the test solution was used as a growth control. In addition, in order to determine the antimicrobial activity of dipropylene glycol itself used as a solvent, the MIC of the test bacteria for the solvent was measured under the same conditions as in the sample.

P. aeruginosa = system: P. aeruginosa
Description: as §1, §2, §3, §4

C. albicans = system: C. albicans
Description: as §1, §2, §3, §4

S. aureus = system: S. aureus
Description: as §1, §2, §3, §4

E. coli = system: E. coli
Description: as §1, §2, §3, §4

Compound | minimum inhibitory concentration (MIC), A. niger (A. niger) | minimum inhibitory concentration (MIC), P. Aeruginosa (P. aeruginosa) | minimum inhibitory concentration (MIC), C. albicans (C. albicans) | minimum inhibitory concentration (MIC), S. Aureus (S. aureus) | minimum inhibitory concentration (MIC), E. coli (E. coli)
CCCCCCCCCCCCNCC(O)CO (centres unmarked) [Comparative Example 1, (3-dodecylamino)propane-1,2-diol] | 0.09% | 0.03% | 0.01% | 0.01% | 0.01%
CCCCC(O)CO (centres unmarked) [Comparative Example 2, Hexane-1,2-diol] | 0.5% | 1% | 2% | 2% | 1%
CCCCCCC(O)CO (centres unmarked) [Comparative Example 3, Octane-1,2-diol] | 0.3% | 0.5% | 0.5% | 0.5% | 0.25%
CCCCCCCCC(O)CO (centres unmarked) [Comparative Example 4, Decane-1,2-diol] | 0.006% | 0.045% | 0.011% | 0.025% | 0.09%
CCCCCCOCC(O)CO (centres unmarked) [Comparative Example 5, Hexyl glycerin] | 0.32% | 0.5% | 0.64% | 0.5% | 0.2%
CCCCCCCCOCC(O)CO (centres unmarked) [Comparative Example 6, Octyl glycerin] | 0.5% | 0.5% | 0.25% | 0.5% | 0.5%
CCCCC(CC)COCC(O)CO (centres unmarked) [Comparative Example 7, Ethylhexylglycerin] | 0.5% | 2% | 0.5% | 0.15% | 0.3%
O=C/C=C/c1ccccc1 [Comparative Example 9, Cinnamaldehyde] | 0.03% | 0.1% | 0.02% | 0.03% | 0.05%
COc1ccccc1/C=C/C=O [Comparative Example 10, 2-methoxycinnamaldehyde] | 0.005% | 0.4% | 0.005% | 0.02% | 0.02%
CC(=O)CCc1ccc(O)cc1 [Comparative Example 11, Raspberry ketone] | 0.5% | 0.1% | 1% | 0.1% | 0.5%
OCCCc1ccccc1 [Comparative Example 12, 3-phenyl-1-propanol] | 0.03% | 0.2% | 0.03% | 0.4% | 0.4%
CC(=O)c1ccc(O)cc1 [Comparative Example 13, 4-hydroxy acetophenone] | 0.5% | 0.1% | 0.1% | 0.2% | 0.15%
O=C([O-])c1ccccc1.[Na+] [Comparative Example 14, Sodium benzoate] | 0.1% | 0.016% | 0.12% | 0.002% | 0.016%
OCCOc1ccccc1 [Comparative Example 15, Phenoxy EtOH] | 0.12% | 0.09% | 0.12% | 0.06% | 0.06%
CCCCCCCC(=O)NO [Comparative Example 17, Caprylhydroxamic acid] | 0.02% | 0.12% | 0.03% | 0.06% | 0.06%
Cc1cc(CC(C)CC(C)(C)C)n(O)c(=O)c1 (centres unmarked) [Comparative Example 18, Piroctone olamine] | 0.3% | 0.2% | 0.2% | 0.05% | 0.05%
CCCCCCCCCCCC(=O)NC(CCCN=C(N)N)C(=O)OCC (centres unmarked) [Comparative Example 19, Lauroyl arginine ethyl ester] | 0.003% | 0.003% | 0.001% | 0.003% | 0.003%
CC(=O)CCC(=O)O [Comparative Example 20, Levulinic acid] | 0.15% | 0.1% | 0.1% | 0.02% | 0.02%
COc1ccc(C(=O)O)cc1 [Comparative Example 22, Sodium anisate] | 0.1% | 0.05% | 0.1% | 0.01% | 0.05%
O=C([O-])CN(CCN(CC(=O)[O-])CC(=O)[O-])CC(=O)[O-].[Na+].[Na+].[Na+].[Na+] [Comparative Example 24, Tetrasodium EDTA] | 0.15% | 0.15% | 0.05% | 0.1% | 0.1%
Citric acid [Comparative Example 21] | 0.2% | 0.1% | 0.05% | 0.1% | 0.1%
Disodium EDTA [Comparative Example 23] | 0.15% | 0.15% | 0.05% | 0.1% | 0.1%
